These are literature values, as cited in patent EP3320903B1 (HK inno.N Corporation, priority 2015, dated 2017).

The pKa is the pH at which an ionisable group is half protonated.

As for `CC(C)c1nc(N(C)S(C)(=O)=O)nc(-c2ccc(F)cc2)c1/C=C/[C@@H](O)C[C@@H](O)CC(=O)O` [rosuvastatin, (3R,5S,6E)-7-[4-(4-fluorophenyl)-2-(N-methylmethanesulfonamido)-6-(propan-2-yl)pyrimidin-5-yl]-3,5-dihydroxyhepten-6-oic acid], the pKa is roughly 4.6.
